Results as given in ChEMBL document CHEMBL2177093, “The design and identification of brain penetrant inhibitors of phosphoinositide 3-kinase α” (J Med Chem, 2012).

Key:
[1] = Ratio of drug level in brain to plasma in CD-1 mouse at 10 mg/kg, po measured at 0.5 hrs; assay type: ADME, organism-based; design: dose 10 mg/kg, route oral; conditions: read-out: BPR
[2] = system: mouse Bcrp1; assay: in vitro; conditions: dog
[3] = Ratio of drug level in brain to plasma in CD-1 mouse at 15 mg/kg, po measured at 0.5 hrs; assay type: ADME, organism-based; design: dose 15 mg/kg, route oral; conditions: read-out: BPR
[4] = target: Serine/threonine-protein kinase mTOR (Homo sapiens, UniProt P42345); assay: Inhibition of human recombinant mTOR (1360 to 2549 amino acids) assessed as reduction in phosphorylation of (GFP)-4-EBP1 after 30 mins by FRET assay; conditions: read-out: Ki(app)
[5] = Half life in po dosed CD-1 mouse; assay type: ADME, organism-based; conditions: in vivo
[6] = Plasma protein binding in CD-1 mouse; assay type: ADME, cell-free; conditions: read-out: PPB (converted)
[7] = Ratio of drug level in brain to plasma in CD-1 mouse at 15 mg/kg, po at 0.5 hr; assay type: ADME, organism-based; design: dose 15 mg/kg, route oral; conditions: read-out: BPR
[8] = Ratio of drug level in brain to plasma in CD-1 mouse at 15 mg/kg, po at 4 hrs; assay type: ADME, organism-based; design: dose 15 mg/kg, route oral; conditions: read-out: BPR
[9] = in vitro; conditions: human, liver microsomes
[10] = target: Phosphatidylinositol 4,5-bisphosphate 3-kinase catalytic subunit alpha isoform (Homo sapiens, UniProt P42336); assay: Inhibition of PI3Kalpha assessed as reduction in PIP3 formation after 30 mins by fluorescence polarization assay
Sequence of Phosphatidylinositol 4,5-bisphosphate 3-kinase catalytic subunit alpha isoform (P42336 whole entry, canonical isoform): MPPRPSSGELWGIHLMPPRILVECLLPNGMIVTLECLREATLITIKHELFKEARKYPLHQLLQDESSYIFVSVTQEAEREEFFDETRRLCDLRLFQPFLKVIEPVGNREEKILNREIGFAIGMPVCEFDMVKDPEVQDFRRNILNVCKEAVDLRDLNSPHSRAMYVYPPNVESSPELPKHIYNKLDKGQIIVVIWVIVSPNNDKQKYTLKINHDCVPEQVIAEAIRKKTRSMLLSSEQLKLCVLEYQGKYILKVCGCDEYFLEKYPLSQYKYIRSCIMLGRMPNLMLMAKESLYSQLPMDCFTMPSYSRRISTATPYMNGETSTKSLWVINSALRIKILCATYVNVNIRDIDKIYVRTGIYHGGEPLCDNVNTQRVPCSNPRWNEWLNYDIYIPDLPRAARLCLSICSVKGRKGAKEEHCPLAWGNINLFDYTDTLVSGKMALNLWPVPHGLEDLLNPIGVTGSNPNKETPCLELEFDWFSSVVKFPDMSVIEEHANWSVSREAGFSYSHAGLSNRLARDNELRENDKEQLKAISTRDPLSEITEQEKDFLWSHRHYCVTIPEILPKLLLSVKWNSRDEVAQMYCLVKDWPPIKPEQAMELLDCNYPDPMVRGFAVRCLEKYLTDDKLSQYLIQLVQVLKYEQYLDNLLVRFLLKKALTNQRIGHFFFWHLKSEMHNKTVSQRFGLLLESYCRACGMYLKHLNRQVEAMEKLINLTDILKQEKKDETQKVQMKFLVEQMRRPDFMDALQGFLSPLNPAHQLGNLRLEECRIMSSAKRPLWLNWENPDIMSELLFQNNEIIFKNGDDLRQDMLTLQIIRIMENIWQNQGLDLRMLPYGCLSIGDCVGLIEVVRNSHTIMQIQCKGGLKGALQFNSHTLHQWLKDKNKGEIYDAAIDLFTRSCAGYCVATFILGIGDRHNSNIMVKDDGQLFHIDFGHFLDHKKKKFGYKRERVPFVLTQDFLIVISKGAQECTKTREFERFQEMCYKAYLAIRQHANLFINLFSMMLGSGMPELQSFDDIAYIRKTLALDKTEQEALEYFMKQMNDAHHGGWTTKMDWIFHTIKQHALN

[11] = system: PC-3; assay: Antiproliferative activity against human PC3 cells incubated for 3 days; assay type: functional, cell-based; conditions: PC-3, 72 h

For `CS(=O)(=O)N1CCN(Cc2cc3nc(-c4cccc5[nH]ncc45)nc(N4CCOCC4)c3s2)CC1` [PICTILISIB], the Kp at 0.5 h [1] was < 0.05.

An efflux ratio at 2 h, 5 µM [2] of 1.4 was found for `COCCOC1(c2cc3nc(-c4cnc(N)nc4)nc(N4CCOCC4)c3s2)COC1` in this work.

A Kp at 0.5 h [3] of 0.2, a Ki [4] of 0.03 µM and a half-life [5] of 2.2 h were found for `CC(C)(O)c1cc2nc(-c3cnc(N)nc3)nc(N3CCOCC3)c2s1` in this work. It also gave a fraction unbound [6] of 0.198, a Kp at 0.5 h [7] of 0.3 and a Kp at 4 h [8] of 0.2. The CLhep predicted [9] was 4 mL/min/kg.

An IC50 [10] of 0.036 µM, an EC50 [11] of 3.6 µM and a CLhep predicted [9] of 16 mL/min/kg were found for `c1cc(-c2nc(N3CCOCC3)c3sccc3n2)c2cn[nH]c2c1` in this work. It also gave an efflux ratio at 2 h, 5 µM [2] of 1.

An efflux ratio at 2 h, 5 µM [2] of 1.7 was found for `CC(F)(F)c1cc2nc(-c3cnc(N)nc3)nc(N3CCOCC3)c2s1` in this work.

An efflux ratio at 2 h, 5 µM [2] of 7.1 was found for `Cc1c(C2(O)COC2)sc2c(N3CCOCC3)nc(-c3cnc(N)nc3)nc12` in this work.

An efflux ratio at 2 h, 5 µM [2] of 22 was found for `Nc1ncc(-c2nc(N3CCOCC3)c3sc(C4CNC4)cc3n2)cn1` in this work.
